What was measured:
[1] = tested on: mice; experiment: Acute toxicity; assay type: in vivo; settings: oral administration
Protocol: The lethal doses LD50 of the different compounds tested were evaluated after oral administration to mice and LD0 is the maximum dose not causing any mortality in 8 days.

[2] = tested on: arterial pressure; experiment: Hypotensive activity (arterial pressure, anesthetized rats); assay type: in vivo, rat (WISTAR); settings: male WISTAR rats anesthetized with nembutal, intravenous, 1 mg/kg
Protocol: The hypotensive activity was studied on male rats of the WISTAR strain weighing about 300 g and anesthetized with nembutal (50 mg/kg by intraperitoneal route). The product tested was administered intravenously into the jugular vein and the carotidien arterial pressure was measured before and after administration of the product tested.

[3] = tested on: dopaminergic agonist action at the central level; experiment: Stereotype behavior; assay type: in vivo, rat; settings: male rats, intraperitoneal, 50 mg/kg
Protocol: The tests were carried out on groups of 5 male rats weighing 150 to 180 g and each animal was placed individually in a barred cage (29×25×17 cm) containing a few wood shavings. The test product was administered intraperitoneally and the behavior of the animals was noted every half-hour for 5 hours with the rating of Halliwell et al [Brit. J. Pharmacol. 1964, Vol. 23, 330-350]. The animal was asleep (0), it was awake but immobile (1), it turned in the cage (2), it sniffed the cover (3), it licks the walls (4), it touched the wood shavings or the bars of the cage with its teeth (5), it bit the shavings or the bars of the cage (6).

[4] = tested on: force of cardiac contraction; experiment: Positive inotropic activity; assay type: in vivo, rat (Sprague-Dawley); settings: 10 to 100 mg/kg
Protocol: E. Positive inotropic activity
Rats of Sprague-Dawley strain weighing 300 to 350 g were anesthetized with pentobarbital (50 mg/kg by intraperitoneal injection) and a catheter was placed in the left ventricle to measure the cardiac intraventricular pressure and the dP/dt VG (or rate of variation of the intraventricular pressure). A second arterial catheter placed in the femoral artery enabled the systemic arterial pressure and the cardiac frequency to be registered. The test products and the possible antagonists were injected by a catheter placed in a jugular vein. This model enabled the effect of various substances on the force of cardiac contraction to be evaluated in vivo as a function of the dose and the time.

[5] = tested on: average arterial pressure; experiment: Test for direct vasodilatory activity of vascular relaxing postsynaptic activity (demedullated rats, angiotensine II); assay type: in vivo, rat (Sprague-Dawley)
Protocol: D. Test for Direct Vasodilatary Activity of Vascular Relaxing Postsynaptic-activity
Rats of the Sprague-Dawley strain weighing 320-350 g were anesthetized with pentobarbital (50 mg/kg by intraperitoneal injection) and after the positioning of a carotidien catheter to measure the arterial pressure and a jugular catheter for the injection of the test compounds and possible antagonists, the animals were demedullated with a steel rod. This rod was introduced by the right orbital orifice and descended the length of the spinal cord. The animals were then immediately placed under assisted respiration and a few minutes after the arterial pressure was stabilized, the animals received an intravenous perfusion of angiotensine II of […] to increase their average pressure by about 100 mm of mercury. After a plateau was reached, the test substance was injected intravenously every 2 minutes and in cumulated doses. The percentage drop in the average arterial pressure obtained enabled a dose-response curve to be traced reflecting the vasodilatary activity of the compound studied. The preliminary treatment of the animals with different antagonists enabled the mechanism of action of the compound to be determined. The products were tested between 0.001 and 1 mg/kg and Domperidone and propanolol were used as antagonists.

[6] = tested on: dopaminergic stimulating activity at the central level; experiment: Rotation behavior after unilateral lesion of the nigra-striated bundle by 6-hydroxydopamine; assay type: in vivo, rat; settings: male rats, intraperitoneal, 5 mg/kg
Protocol: A. Rotation behavior after unilateral lesion of the nigra-striated bundle by 6-hydroxydopamine
Male rats weighing about 220 g were injured in the nigra-striated dopaminergic bundle by Ungerstedt's method [Acta physiol. Scand. 1971, Vol. 82 suppl. p. 367-69 93] modified by unilateral injection of 9.2 μg of 6-hydroxydopamine hydrochloride in solution in 4 μl of physiological solution containing 0.5 mg/ml of ascorbic acid. The test products were administered intraperitoneally and the animals treated, on average 6, were placed individually in a rotometer which enabled the counting of the number of rotations carried out by each animal in the opposite direction to the injured side.

[7] = tested on: pressure responses to the electrical stimulation; experiment: Presynaptic activity at the vascular level; assay type: in vivo, rat (Sprague-Dawley); settings: demedullated Sprague-Dawley rats
Protocol: F. Presynaptic activity at the vascular level
Rats of Sprague-Dawley strain weighing 320-350 g were anesthetized with pentobarbital (50 mg/kg by intraperitoneal injection) and after insertion of a carotidien catheter to measure the arterial pressure and a jugular catheter for the injection of the test compounds, the animals were demedullated with a stainless steel rod introduced by the right orbitary orifice. This rod was insulated along its length with the exception of the last five centimeters. As soon as the medulla was destroyed, the animals were placed under assisted respiration. After a period of rest of about 20 minutes, the animals were submitted to electrical stimulations applied between the demedullation rod and a neutral electrode placed under the skin in the thigh region with impulses of 2 msec., frequency of 10 Hz and amplitude of about 20 V for 30 sec. for 5 minutes each. […] The addition of appropriate blockers and the combination of this technique with the modification of dose-response curves to vasoconstricting agents such as noradrenaline enabled the pharmacological profile of the test compound to be determined.

[8] = anesthetized Sprague-Dawley rats, jugular vein

Row | Compound | LD0 (maximum dose not causing any mortality in 8 days) [1] [mg/kg] | effect on carotidien arterial pressure [2] | central dopaminergic agonist action (conclusion from stereotype test) [3] | stereotype movements ([3]; noted every half-hour for 5 hours) | positive inotropic effect (conclusion) [4] | blockade by propanolol of the increase of dP/dt and maximal ventricular pressure ([4]; with propanolol) | dP/dt (rate of variation of the intraventricular pressure) [4, 8] | maximal ventricular pressure [4, 8] | origin of the vasodilator effect (mechanism) ([5]; Domperidone and propanolol used as antagonists) | minimal effective dose ([5]; Rattus norvegicus, demedullated Sprague-Dawley rats, angiotensine II perfusion, intravenous cumulated doses, tested between 0.001 and 1 mg/kg, read-out: dose from which a dose dependent vasodilator effect occurs) [µg/kg] | central dopaminergic stimulating activity (conclusion from rotation test) [6] | rotations in the opposite direction to the injured side ([6]; at least ninety minutes) | site of action linked to the reduction of the responses [7] | pressure responses to the electrical stimulation ([7]; intravenous) | blockade by sulpiride of the reduction of the responses ([7]; with sulpiride)
1 | Br.CCCN1CCCC(c2ccc(O)c3c2CC(=O)N3)C1 (stereo not shown) [Example 4, 1,3-dihydro-7-hydroxy-4-(1-propyl-3-piperidinyl)-2H-indol-2-one hydrobromide] | 400 | – | – | – | – | – | – | – | – | – | – | – | – | – | –
2 | Br.O=C1Cc2c(C3CCCNC3)ccc(O)c2N1 (stereo not shown) [Example 3, 1,3-dihydro-7-hydroxy-4-(3-piperidinyl)-2H-indol-2-one hydrobromide] | 400 | slight effect on the arterial pressure | substantially deprived of dopaminergic agonist action at the central level | practically no stereotype movements | possessed positive inotropic properties | not otherwise blocked by propanolol | increase of the dP/dt | increase of the dP/dt and of the maximal ventricular pressure | of dopaminergic and α-adrenergic origin | ≥ 1 | substantially deprived of dopaminergic stimulating activity at the central level | practically no rotations | essentially post-synaptic activity | reduction of the responses | not blocked by sulpiride

Reference: patent US4694011A, “Novel 7-hydroxy-indoles” (Roussel Uclaf, priority 1985, dated 1987)
